# Measured values from ChEMBL document CHEMBL1629607, “Nalidixic acid disk for laboratory detection of ciprofloxacin resistance in Neisseria meningitidis” (2009).
# Columns and labels:
# Format in all cases: functional
# Neisseria meningitidis [1] = assay: Antimicrobial activity against fluoroquinolone-susceptible Neisseria meningitidis by disk diffusion method; conditions: for MIC: Neisseria meningitidis
# Neisseria meningitidis [2] = assay: Antimicrobial activity against fluoroquinolone-resistant Neisseria meningitidis expressing gyrA mutant by disk diffusion method
# Neisseria meningitidis [3] = assay: Antimicrobial activity against fluoroquinolone-intermediate Neisseria meningitidis by disk diffusion method
# Neisseria meningitidis [4] = assay: Antimicrobial activity against fluoroquinolone-susceptible Neisseria meningitidis at 30 ug by disk diffusion method; conditions: read-out: IZ
# Neisseria meningitidis [5] = assay: Antimicrobial activity against fluoroquinolone-resistant Neisseria meningitidis expressing gyrA mutant at 30 ug by disk diffusion method; conditions: read-out: IZ
Compound,inhibition zone (IZ) (Neisseria meningitidis [1]) [mm],MIC (Neisseria meningitidis [1]) [µg/mL],inhibition zone (IZ) (Neisseria meningitidis [2]) [mm],MIC (Neisseria meningitidis [2]; Neisseria meningitidis) [µg/mL],inhibition zone (IZ) (Neisseria meningitidis [3]) [mm],MIC (Neisseria meningitidis [3]; Neisseria meningitidis) [µg/mL],zone of inhibition at 30 µg/disc (Neisseria meningitidis [4]) [mm],zone of inhibition at 30 µg/disc (Neisseria meningitidis [5]) [mm]
O=C(O)c1cn(C2CC2)c2cc(N3CCNCC3)c(F)cc2c1=O [CIPROFLOXACIN],34,≤ 0.03,29,≥ 0.12,35,0.06,,
CCn1cc(C(=O)O)c(=O)c2ccc(C)nc21 [NALIDIXIC ACID],,0.25,,,,,28,< 15
